# Experimental data taken from US20010049373A1, “Materials and methods for killing nematodes and nematode eggs” (priority 2000, published 2001).
# Legend:
# Caenorhabditis elegans [1] = test: C. elegans L1 larvae dose-response, 5 day visual viability score (Examples 2 and 7); assay type: in vivo; design: key: Dead: only stiff L1s (no movement); Dead (L4): worms are dead, but at a later larval stage; majority of worms are L1 (based on size); majority of worms are L2 (based on size); majority of worms are L3 (based on size); majority of worms are L4 (based on size); AD: majority of worms are adult; #AD: 5 adult worms or less; B!: sterile (0-25 progeny); B: low broodsize (25-100 progeny); ˜B: moderate broodsize (100-250 progeny); <: reduced broodsize (250-500 progeny); OK: no effect (˜1000+ progeny); conditions: for 5 Day Visual Score V5: 0.9 μM (procedure of Example 2)
# Description: Caenorhabditis elegans adults were grown on Nematode Growth Medium (NGM) until they produced eggs, then the adults were removed.
# The eggs were allowed to hatch, and the L1 larvae collected. See The Neniatode Caenorhabditis elegans (1988) Cold Spring Harbor Laboratory Press. Using a Matrix Programmable Pipette, the L1s were distributed into 96-well tissue culture plates, 20 L1 in 50 μl NGM per well. Antibiotic/Antimyotic was added to each well, and 1% by weight E. coli strain HB101. The subject anthelmintic compounds were stored at 5 mM in 100% DMSO. 0.7 μl of compounds 1-31 were added to the left-most column of wells to yield a final concentration of 70 μM in 1.4% DMSO, with 1.4% DMSO only as the control. The compounds were then subjected to 5 more 3-fold dilutions from left to right to yield 6 column concentrations of 70 μM, 23.3 μM, 7.8 μM, 2.6 μM, 0.9 μM, and 0.3 μM. Plates were stored in air-tight Rubbermaid plastic boxes at 20° C. The nematodes had cleared all control wells by day 4, and nematode viability was scored by visual examination under a 100× dissecting microscope on day 5. A visual viability scoring system was used as follows:
# If several classes of worms exist in a well, then all classes are scored. If adults are present, then the brood score is also recorded. Thus, “L1/L2” would mean a mixture of L1's and L2's are present in the well. “L4/#AD/B” would mean that a mixture of L4's and adults are resent in the well. The “#AD” would mean that there are 6 or less adults, and the “B” would mean that there were 100 progeny or less.
# Column VI has a compound concentration of 70 μM with sequential 3-fold dilutions reported in columns V2, V3, V4, V5, and V6, respectively, such that the V6 concentration was 0.3 μM.
# (§1) The nematicidal activity of anthelmintic Compositions 48-118 were determined in accordance with the procedure outlined in Example 2.
# Caenorhabditis elegans [2] = test: HTS runs (initial and follow-up): mOD, % Run and visual score (Table 3); assay type: in vivo; design: key to Initial HTS Run Visual Score / Follow-up HTS Run Visual Score: Dead: only stiff L1s (no movement); Dead (L4): worms are dead, but at a later larval stage; majority of worms are L1 (based on size); majority of worms are L2 (based on size); majority of worms are L3 (based on size); majority of worms are L4 (based on size); AD: majority of worms are adult; #AD: 5 adult worms or less; B!: sterile (0-25 progeny); B: low broodsize (25-100 progeny); ˜B: moderate broodsize (100-250 progeny); <: reduced broodsize (250-500 progeny); OK: no effect (˜1000+ progeny)
# Description: as §1
# [3] = 23.3 μM, viability scored day 5, Table 1
# [4] = 70 μM, viability scored day 5, Table 1
# [5] = 0.3 μM (procedure of Example 2), day 5, Table 3
# [6] = 7.8 μM (procedure of Example 2), day 5, Table 3
# [7] = 23.3 μM (procedure of Example 2), day 5, Table 3
# [8] = 70 μM (procedure of Example 2), day 5, Table 3
# [9] = 2.6 μM (procedure of Example 2), day 5, Table 3
Compound,"5 Day Visual Score V6 (Caenorhabditis elegans [1]; 0.3 μM, viability scored day 5, Table 1)","5 Day Visual Score V4 (Caenorhabditis elegans [1]; 2.6 μM, viability scored day 5, Table 1)","5 Day Visual Score V3 (Caenorhabditis elegans [1]; 7.8 μM, viability scored day 5, Table 1)",5 Day Visual Score V2 (Caenorhabditis elegans [1]; [3]),5 Day Visual Score V1 (Caenorhabditis elegans [1]; [4]),5 Day Visual Score V6 (Caenorhabditis elegans [1]; [5]),"5 Day Visual Score V5 (Caenorhabditis elegans [1]; day 5, Table 3)",5 Day Visual Score V3 (Caenorhabditis elegans [1]; [6]),5 Day Visual Score V2 (Caenorhabditis elegans [1]; [7]),5 Day Visual Score V1 (Caenorhabditis elegans [1]; [8]),Follow-up HTS Run % Run (Caenorhabditis elegans [2]) [%],Follow-up HTS Run Visual Score (Caenorhabditis elegans [2]),Follow-up HTS Run mOD (Caenorhabditis elegans [2]) [mOD],Initial HTS Run % Run (Caenorhabditis elegans [2]) [%],Initial HTS Run Visual Score (Caenorhabditis elegans [2]),Initial HTS Run mOD (Caenorhabditis elegans [2]) [mOD],5 Day Visual Score V4 (Caenorhabditis elegans [1]; [9])
CCOc1cccc(C2ON=C(c3ccccc3OCC)C2C(=O)NCc2ccc(OC(F)(F)F)cc2)c1 (stereo not drawn) [AKC 125],< (reduced broodsize (250-500 progeny)),L2,L2,L2/Dead(L4),L2/Dead(L3),–,–,–,–,–,–,–,–,–,–,–,–
CCC1CCCCN1c1cc(Oc2ccc(-c3ccccc3)cc2)ncn1 (stereo not drawn) [AKC 148],–,–,–,–,–,˜B (moderate broodsize (100-250 progeny)),˜B (moderate broodsize (100-250 progeny)),Dead,Dead,Dead,126,Dead,170,143,Dead-Black Husk,278,–
CC(CCc1ccccc1)Nc1cc(Oc2ccc(-c3ccccc3)cc2)ncn1 (stereo not drawn) [AKC 149],–,–,–,–,–,< (reduced broodsize (250-500 progeny)),< (reduced broodsize (250-500 progeny)),Dead,Dead,Dead,100,Dead,135,133,Dead,259,–
FC(F)(F)c1ccccc1CNc1cc(Oc2ccc(-c3ccccc3)cc2)ncn1 [AKC 339],–,–,–,–,–,OK (no effect (˜1000+ progeny)),OK (no effect (˜1000+ progeny)),OK (no effect (˜1000+ progeny)),OK (no effect (˜1000+ progeny)),OK (no effect (˜1000+ progeny)),113,B (low broodsize (25-100 progeny)),153,142,1AD/B,277,OK (no effect (˜1000+ progeny))
c1ccc2c(c1)CCN(c1cc(Oc3ccc4ccccc4c3)ncn1)C2 [AKC 342],–,–,–,–,–,OK (no effect (˜1000+ progeny)),OK (no effect (˜1000+ progeny)),–,–,–,92,B!-Healthy,124,106,L4/AD/B!,207,˜B (moderate broodsize (100-250 progeny))
CN(Cc1ccccc1)c1cc(Oc2cccc(F)c2)ncn1 [AKC 344],–,–,–,–,–,OK (no effect (˜1000+ progeny)),OK (no effect (˜1000+ progeny)),–,Dead,Dead,119,–,161,131,L2,256,OK (no effect (˜1000+ progeny))
Fc1ccc(Oc2cc(N3CCc4ccccc4C3)ncn2)cc1 [AKC 345],–,–,–,–,–,OK (no effect (˜1000+ progeny)),OK (no effect (˜1000+ progeny)),L4,L1,L1,114,–,154,135,L1,264,OK (no effect (˜1000+ progeny))
NS(=O)(=O)c1ccc(NC(=O)CN2CCCC(NC(=O)c3cc4ccccc4o3)C2)cc1 (stereo not drawn) [AKC 348],–,–,–,–,–,B (low broodsize (25-100 progeny)),< (reduced broodsize (250-500 progeny)),Dead,Dead,Dead,123,–,166,126,Dead,246,–
CCC(C)Nc1cc(Oc2ccc3oc4ccccc4c3c2)ncn1 (stereo not drawn) [AKC 349],–,–,–,–,–,OK (no effect (˜1000+ progeny)),OK (no effect (˜1000+ progeny)),#AD/˜B,OK (no effect (˜1000+ progeny)),–,103,B (low broodsize (25-100 progeny)),139,127,2AD/B!,247,OK (no effect (˜1000+ progeny))
CCN(C)c1cc(Oc2ccc3ccccc3c2)ncn1 [AKC 350],–,–,–,–,–,OK (no effect (˜1000+ progeny)),OK (no effect (˜1000+ progeny)),–,L1,L1,101,Dead,136,126,Dead,245,OK (no effect (˜1000+ progeny))
Fc1ccc(F)c(CNc2cc(Oc3cccc(Cl)c3)ncn2)c1 [AKC 354],–,–,–,–,–,< (reduced broodsize (250-500 progeny)),OK (no effect (˜1000+ progeny)),#AD/˜B,–,Dead,108,B (low broodsize (25-100 progeny)),146,137,1AD/B,267,< (reduced broodsize (250-500 progeny))
O=C(NCCc1ccccc1F)C1C(c2ccc(F)cc2)=NOC1c1ccc(-c2ccccc2)cc1 (stereo not drawn) [AKC 2153],–,–,–,L1,L1,–,–,–,–,–,–,–,–,–,–,–,–
